From PMC6014988, “Precision therapeutic targeting of human cancer cell motility” (Nature Communications, 2018)
Where two headings read alike, the source gives them in different places.

Tests used:
[1] = tested on: 1542CPTX; test: Three-day MTT cell growth inhibition assay, 1542CPTX; type: cell-based, human; details: Homo sapiens, 72 h, 3 days
[2] = as above; type: cell-based, human; details: human, 1542CPTX cells
[3] = Systemic off-target effects, histologic examination after 35 days; type: in vivo
Method: Histologic examination of tissue: Organs of athymic male mice stained with hematoxylin and eosin, trichrome, or giemsa were microscopically examined by a mouse pathologist (L.L.) in a blinded fashion, and toxicity scored using an established semi-quantitative histological scoring system[38] (Supplementary Fig. 8). The following clinical chemistry parameters were measured in blood of CD1 male and female mice by Charles River Research Animal Diagnostic Services: cholesterol, triglycerides, alanine aminotransferase, aspartate aminotransferase, total bilirubin, glucose, phosphorus, total protein, calcium, blood urea nitrogen (BUN), creatinine, albumin, Na, K, Cl, white blood cells (with differential), red blood cells, hemoglobin, and platelets.
Supplementary Figure 7. KBU2046 treatment is not associated with systemic off-target effects. For histologic examination of tissue, cohorts of N=5 male 6-8 week old Balb/c athymic […]
KBU2046 as described in manuscript Figure 2a. […] Organs were examined for damage using a semi-quantitative histological scoring system, as described 4. […]

[4] = tested on: phosphoproteins in PC3 cells; test: PhosphoScan LC-MS/MS of BL4176 immunoprecipitates; type: cell-based, human
Method: The Kinoview™ and PhosphoScan™ assays were performed by Cell Signaling Technology Inc.
Supplementary Figure 12. Identification of the 83 kDa band using a proteomic approach.
(a) PC3 cells were pre-treated with 10 µM KBU2046 or vehicle (control) for 3 days, then treated with TGFβ for 1 hr, and the resultant cell lysates were subjected to immunoprecipitation with BL4176 (Kinoview® phospho-motif antibody). Proteins bound in this manner were analyzed in replicates of N=2 using PhosphoScan™ technology. This identified 483 unique phosphopeptide assignments from 306 parent proteins, with a mean false discovery rate of 0.30% (estimated via Sorcerer search of composite human database of forward and reverse protein entries). We only considered proteins where the average values for treatment and control were each 3 times that of background. Further, we required each of the N=2 replicate values (used to calculate the average) to be >/= 2.5 fold above background. We were only interested in situations in which protein decreased with KBU2046, and we required that decrease to be >/= 2.5 fold, compared to control.
According to these parameters, there were 19 phospho-proteins whose expression decreased in cells treated with KBU2046, compared to control. These are depicted above. Recognizing that each of these proteins may have value, we elected to remain focused on the 83 kDa protein, and therefore only considered proteins +/- 5 kDa of this value. Only heat shock protein 90 (HSP90)β

[5] = Plasma KBU2046 concentration after dosing in chow; type: in vivo; details: Balb/c athymic, mouse, oral
Method: For determination of pharmacokinetic (PK) parameters, KBU2046 was administered by either intravenous injection or oral gavage to groups of N = 3 CD1(ICR) mice at 0 (i.e., vehicle only), 25, or 100 mg/kg. Blood was collected into EDTA by terminal cardiac puncture before drug administration (i.e., baseline) and at 5, 10, 15, 30, 45, 60, 90, 120, 180, 240, 360, 480, 960, 1440 min after administration. In separate experiments, as described above, Balb/c athymic mice were dosed with KBU2046 incorporated into chow for 35 days, after which blood was collected by terminal cardiac puncture. Resultant plasma (~250 μl/mouse) was stored at −80 °C.
Plasma KBU2046 concentrations were measured in duplicate by liquid chromatography-tandem mass spectrometry after sample preparation by solid-phase extraction. […] The mass-to-charge ratios of the precursor-to-product ion reactions monitored were 243.5 → 125.1 for KBU2046 and 257.0 → 165.0 for the internal standard. […]

O=C1c2ccccc2OCC1c1ccc(F)cc1 (racemic) [KBU2046, (±)-3(4-fluorophenyl)chroman-4-one]
IC20 [1]: > 50 µM | IC50 [1]: > 50 µM | viability at 3 days, 50 µM [2]: 104% | organ damage, histological scoring ([3]; athymic mice, KBU2046 in chow, 35 days): No organ damage was observed | toxicity after oral dosing ([3]; oral doses up to 150 mg/kg, up to 35 days): no observed toxicity | fold change, MFAP1 ([4]; AALDALNT*DDENDEEEYEAWK): -21.8 fold | fold change, UBL5 ([4]; CNT*DDTIGDLKK): -2.9 fold | fold change, PITSLRE ([4]; DLLS*DLQDIS*DSER): -3.3 fold | fold change, VAMP1 ([4]; DQKLS*ELDDR): -3.6 fold | fold change, PIMT ([4]; DRPHAS*GT*DGDES*EEDPPEHKPSK): -4.7 fold | fold change, PIMT ([4]; DRPHASGT*DGDES*EEDPPEHKPSK): -3.0 fold | fold change, HSP90B ([4]; EIS*DDEAEEEKGEKEEEDKDDEEKPK): -6.6 fold | fold change, FIP1L1 ([4]; ERDHS*PTPSVFNS*DEER): -2.9 fold | fold change, IWS1 ([4]; GHHVT*DSENDEPLNLNAS*DSESEELHR): -3.2 fold | fold change, NIN ([4]; HVLS*DLEDDEVR): -3.1 fold | fold change, PGRMC2 ([4]; LLKPGEEPS*EYT*DEEDTKDHNK, PC3, 10 µM 3 days, TGFβ 1 hr): -2.5 fold | fold change, LEO1 ([4]; MQNT*DDEERPQLS*DDER): -3.4 fold | fold change, NudC ([4]; NGSLDSPGKQDT*EEDEEEDEKDKGK): -2.5 fold | decrease in abundance of phosphorylated Ser226 on HSP90β ([4]; PC3 cells, KBU2046 then TGFβ): 6.6 fold | fold change, BAT2D1 ([4]; S*ES*SDFEVVPK): -2.7 fold | fold change, RBM5 ([4]; SEDGYHS*DGDYGEHDYR): -2.7 fold | fold change, CLASP2 ([4]; SRS*DIDVNAAAGAK): -2.4 fold | fold change, SSB ([4]; TKFAS*DDEHDEHDENGATGPVK): -4.5 fold | fold change, SEC62 ([4]; VGPGNHGTEGS*GGERHS*DTDS*DRR): -2.8 fold | fold change, SEC62 ([4]; VGPGNHGTEGSGGERHS*DT*DSDRR): -2.6 fold | concentration at 35 days ([5]; 150 mg/kg, mice whose metastasis were suppressed by 92%, read-out: plasma concentration): 0.024 µM | concentration at 35 days ([5]; athymic mice, KBU2046 in chow, doses that decreased metastasis, read-out: plasma concentrations): 0.0011 to 0.024 µM
